The supplement of paper PMC10331698
± gives the standard deviation of the averaged measurements.

Assays:
Assay in all cases: level (log10 ratio to DMSO vehicle control); higher = higher biomarker level / cell amount than vehicle control
Conditions in all cases: in DMSO
[1] = compound: CCN(CCO)S(=O)(=O)C(F)(F)C(F)(F)C(F)(F)C(F)(F)C(F)(F)C(F)(F)C(F)(F)C(F)(F)F [N-Ethyl-N-(2-hydroxyethyl)perfluorooctanesulfonamide]
Method: (§1)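 BioMAP Diversity Plus panel of 12 human primary cell co-culture systems (3C, 4H, LPS, SAg, BT, BF4T, BE3C, CASM3C, HDF3CGF, KF3CT, MyoF, Mphg). Compounds were added 1 h before stimulation and left for 24 h (MyoF 48 h; BT 72 h for soluble read-outs or 6 d for IgG). Biomarkers were read by ELISA, cytotoxicity by SRB, PBMC viability and proliferation by Alamar Blue. Each well value was divided by the mean of 8 DMSO control wells on the same plate and log10 transformed; duplicate blinded samples were tested at 4 concentrations.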

[2] = compound: FC(F)(F)C(F)(F)C(F)(F)C(F)(F)C(F)(F)C(F)(F)I [Perfluoro-1-iodohexane]
Method: as §1

[3] = compound: NC(=O)C(F)(F)C(F)(F)F [Pentafluoropropionamide]
Method: as §1

[4] = compound: NCC(F)(F)C(F)(F)C(F)(F)C(F)(F)C(F)(F)C(F)(F)C(F)(F)F [1H,1H-Perfluorooctylamine]
Method: as §1

[5] = compound: O=C(O)C(F)(F)C(F)(F)C(F)(F)C(F)(F)C(F)(F)C(F)(F)C(F)(F)C(F)(F)C(F)(F)F [Perfluorodecanoic acid]
Method: as §1

[6] = compound: O=C(O)C(F)(F)C(F)(F)C(F)(F)C(F)(F)C(F)(F)C(F)(F)C(F)(F)C(F)F [9-H-Perfluorononanoic acid]
Method: as §1

[7] = compound: O=C(O)C(F)(F)OC(F)(F)C(F)(F)OC(F)(F)F [Perfluoro-3,6-dioxaheptanoic acid]
Method: as §1

KF3CT:uPA
level (log10) ([1]; 6700 nM): 0.022 ± 0.0028 | level (log10) ([1]; 20000 nM): -0.0225 ± 0.0021 | level (log10) ([2]; 6700 nM): 0.013 ± 0.0042 | level (log10) ([2]; 20000 nM): 0.006 ± 0.023 | level (log10) ([2]; 60000 nM): 0.007 ± 0.017 | level (log10) ([3]; 6700 nM): -0.005 ± 0.0014 | level (log10) ([3]; 20000 nM): 0.008 ± 0.0085 | level (log10) ([3]; 60000 nM): 0.002 ± 0.018 | level (log10) ([4]; 6700 nM): -0.017 ± 0.0028 | level (log10) ([4]; 20000 nM): -0.0135 ± 0.0078 | level (log10) ([4]; 60000 nM): -0.0225 ± 0.019 | level (log10) ([5]; 6700 nM): -0.0095 ± 0.013 | level (log10) ([5]; 20000 nM): 0 ± 0.023 | level (log10) ([6]; 6700 nM): 0.006 ± 0.024 | level (log10) ([6]; 20000 nM): 0.003 ± 0.024 | level (log10) ([6]; 60000 nM): -0.0115 ± 0.00071 | level (log10) ([7]; 6700 nM): -0.0175 ± 0.019 | level (log10) ([7]; 20000 nM): 0.023 ± 0.033 | level (log10) ([7]; 60000 nM): 0.017 ± 0.05

HDF3CGF:Collagen I
level (log10) ([1]; 6700 nM): 0.0835 ± 0.03 | level (log10) ([1]; 20000 nM): 0.112 ± 0.0092 | level (log10) ([2]; 6700 nM): -0.0285 ± 0.026 | level (log10) ([2]; 20000 nM): -0.0365 ± 0.0092 | level (log10) ([2]; 60000 nM): -0.045 ± 0.0071 | level (log10) ([3]; 6700 nM): 0.039 ± 0.075 | level (log10) ([3]; 20000 nM): 0.0205 ± 0.033 | level (log10) ([3]; 60000 nM): 0.055 ± 0.047 | level (log10) ([4]; 6700 nM): -0.047 | level (log10) ([4]; 20000 nM): -0.0275 ± 0.0078 | level (log10) ([4]; 60000 nM): 0.028 ± 0.081 | level (log10) ([5]; 6700 nM): -0.02 ± 0.025 | level (log10) ([5]; 20000 nM): -0.0095 ± 0.04 | level (log10) ([6]; 6700 nM): -0.0315 ± 0.1 | level (log10) ([6]; 20000 nM): 0.009 ± 0.096 | level (log10) ([6]; 60000 nM): 0.015 ± 0.052 | level (log10) ([7]; 6700 nM): 0.0055 ± 0.0064 | level (log10) ([7]; 20000 nM): 0.049 ± 0.0085 | level (log10) ([7]; 60000 nM): 0.069 ± 0.0014

KF3CT:CXCL9/MIG
level (log10) ([1]; 6700 nM): 0.004 ± 0.0085 | level (log10) ([1]; 20000 nM): -0.032 ± 0.013 | level (log10) ([2]; 6700 nM): -0.002 | level (log10) ([2]; 20000 nM): -0.0125 ± 0.00071 | level (log10) ([2]; 60000 nM): 0.0025 ± 0.012 | level (log10) ([3]; 6700 nM): 0.0055 ± 0.013 | level (log10) ([3]; 20000 nM): -0.0015 ± 0.0035 | level (log10) ([3]; 60000 nM): -0.0085 ± 0.012 | level (log10) ([4]; 6700 nM): 0 ± 0.0057 | level (log10) ([4]; 20000 nM): 0.0005 ± 0.018 | level (log10) ([4]; 60000 nM): -0.005 ± 0.0099 | level (log10) ([5]; 6700 nM): 0.0065 ± 0.0078 | level (log10) ([5]; 20000 nM): -0.0185 ± 0.0035 | level (log10) ([6]; 6700 nM): -0.008 ± 0.0042 | level (log10) ([6]; 20000 nM): -0.009 ± 0.0028 | level (log10) ([6]; 60000 nM): -0.0045 ± 0.00071 | level (log10) ([7]; 6700 nM): -0.022 ± 0.0071 | level (log10) ([7]; 20000 nM): 0.0065 ± 0.013 | level (log10) ([7]; 60000 nM): -0.0035 ± 0.019

KF3CT:TIMP-2
level (log10) ([1]; 6700 nM): 0.0855 ± 0.037 | level (log10) ([1]; 20000 nM): 0.04 ± 0.0028 | level (log10) ([2]; 6700 nM): 0.0015 ± 0.013 | level (log10) ([2]; 20000 nM): 0.0135 ± 0.019 | level (log10) ([2]; 60000 nM): 0.0035 ± 0.011 | level (log10) ([3]; 6700 nM): 0.0005 ± 0.026 | level (log10) ([3]; 20000 nM): 0.004 ± 0.027 | level (log10) ([3]; 60000 nM): 0.0305 ± 0.013 | level (log10) ([4]; 6700 nM): -0.013 | level (log10) ([4]; 20000 nM): -0.01 ± 0.018 | level (log10) ([4]; 60000 nM): -0.017 ± 0.013 | level (log10) ([5]; 6700 nM): 0.003 ± 0.03 | level (log10) ([5]; 20000 nM): -0.051 ± 0.034 | level (log10) ([6]; 6700 nM): -0.0055 ± 0.03 | level (log10) ([6]; 20000 nM): -0.01 ± 0.014 | level (log10) ([6]; 60000 nM): 0.016 ± 0.017 | level (log10) ([7]; 6700 nM): 0.024 ± 0.069 | level (log10) ([7]; 20000 nM): -0.0365 ± 0.13 | level (log10) ([7]; 60000 nM): -0.01 ± 0.12

CASM3C:PAI-I
level (log10) ([1]; 6700 nM): 0 ± 0.0071 | level (log10) ([1]; 20000 nM): 0.004 ± 0.0085 | level (log10) ([2]; 6700 nM): -0.003 ± 0.0071 | level (log10) ([2]; 20000 nM): -0.007 ± 0.0014 | level (log10) ([2]; 60000 nM): -0.003 ± 0.0028 | level (log10) ([3]; 6700 nM): -0.009 ± 0.0099 | level (log10) ([3]; 20000 nM): -0.007 ± 0.014 | level (log10) ([3]; 60000 nM): 0.0005 ± 0.0064 | level (log10) ([4]; 6700 nM): -0.0055 ± 0.012 | level (log10) ([4]; 20000 nM): 0.0025 ± 0.0064 | level (log10) ([4]; 60000 nM): -0.0015 ± 0.005 | level (log10) ([5]; 6700 nM): 0.001 ± 0.0014 | level (log10) ([5]; 20000 nM): -0.0015 ± 0.005 | level (log10) ([6]; 6700 nM): 0.0135 ± 0.021 | level (log10) ([6]; 20000 nM): -0.004 ± 0.0042 | level (log10) ([6]; 60000 nM): 0.0085 ± 0.022 | level (log10) ([7]; 6700 nM): -0.004 ± 0.0099 | level (log10) ([7]; 20000 nM): -0.013 ± 0.024 | level (log10) ([7]; 60000 nM): -0.0105 ± 0.018

HDF3CGF:CD106/VCAM-1
level (log10) ([1]; 6700 nM): -0.0825 ± 0.046 | level (log10) ([1]; 20000 nM): -0.173 ± 0.11 | level (log10) ([2]; 6700 nM): -0.027 ± 0.024 | level (log10) ([2]; 20000 nM): -0.032 ± 0.014 | level (log10) ([2]; 60000 nM): -0.405 ± 0.44 | level (log10) ([3]; 6700 nM): -0.0335 ± 0.022 | level (log10) ([3]; 20000 nM): -0.0305 ± 0.025 | level (log10) ([3]; 60000 nM): -0.0225 ± 0.044 | level (log10) ([4]; 6700 nM): -0.0015 ± 0.0078 | level (log10) ([4]; 20000 nM): -0.0445 ± 0.074 | level (log10) ([4]; 60000 nM): -0.08 ± 0.095 | level (log10) ([5]; 6700 nM): -0.0085 ± 0.026 | level (log10) ([5]; 20000 nM): -0.623 ± 0.057 | level (log10) ([6]; 6700 nM): -0.041 ± 0.018 | level (log10) ([6]; 20000 nM): -0.064 ± 0.013 | level (log10) ([6]; 60000 nM): -0.066 ± 0.013 | level (log10) ([7]; 6700 nM): -0.033 ± 0.024 | level (log10) ([7]; 20000 nM): 0.023 ± 0.082 | level (log10) ([7]; 60000 nM): -0.039 ± 0.061

CASM3C:Proliferation
level (log10) ([1]; 6700 nM): 0.011 ± 0.04 | level (log10) ([1]; 20000 nM): -0.175 ± 0.005 | level (log10) ([2]; 6700 nM): 0.023 ± 0.0071 | level (log10) ([2]; 20000 nM): -0.02 ± 0.013 | level (log10) ([2]; 60000 nM): -0.021 ± 0.067 | level (log10) ([3]; 6700 nM): -0.0115 ± 0.015 | level (log10) ([3]; 20000 nM): -0.0025 ± 0.011 | level (log10) ([3]; 60000 nM): 0.0235 ± 0.069 | level (log10) ([4]; 6700 nM): 0.0025 ± 0.012 | level (log10) ([4]; 20000 nM): 0.005 ± 0.016 | level (log10) ([4]; 60000 nM): -0.0095 ± 0.0092 | level (log10) ([5]; 6700 nM): 0.049 ± 0.0028 | level (log10) ([5]; 20000 nM): 0.0205 ± 0.035 | level (log10) ([6]; 6700 nM): 0.012 ± 0.011 | level (log10) ([6]; 20000 nM): -0.016 ± 0.013 | level (log10) ([6]; 60000 nM): 0.028 ± 0.088 | level (log10) ([7]; 6700 nM): 0.02 ± 0.016 | level (log10) ([7]; 20000 nM): -0.034 ± 0.065 | level (log10) ([7]; 60000 nM): -0.077 ± 0.017

lMphg:CD62E/E-Selectin
level (log10) ([1]; 6700 nM): 0.0935 ± 0.0078 | level (log10) ([1]; 20000 nM): 0.14 ± 0.0099 | level (log10) ([2]; 6700 nM): 0.005 ± 0.0042 | level (log10) ([2]; 20000 nM): 0.018 ± 0.02 | level (log10) ([2]; 60000 nM): 0.0305 ± 0.033 | level (log10) ([3]; 6700 nM): -0.018 ± 0.0014 | level (log10) ([3]; 20000 nM): 0.016 ± 0.014 | level (log10) ([3]; 60000 nM): -0.013 ± 0.0071 | level (log10) ([4]; 6700 nM): 0.0195 ± 0.023 | level (log10) ([4]; 20000 nM): 0.0085 ± 0.015 | level (log10) ([4]; 60000 nM): 0.013 ± 0.03 | level (log10) ([5]; 6700 nM): -0.026 ± 0.0028 | level (log10) ([5]; 20000 nM): -0.0135 ± 0.011 | level (log10) ([6]; 6700 nM): -0.005 ± 0.037 | level (log10) ([6]; 20000 nM): 0.0085 ± 0.035 | level (log10) ([6]; 60000 nM): 0.0585 ± 0.021 | level (log10) ([7]; 6700 nM): 0.0105 ± 0.0021 | level (log10) ([7]; 20000 nM): 0.003 ± 0.017 | level (log10) ([7]; 60000 nM): 0.061
